Assay results reported in US12201640B2, “19-nor C3,3-disubstituted C21-n-pyrazolyl steroids and methods of use thereof” (Sage Therapeutics, Inc., priority 2013, dated 2025).

How the values were obtained:
PTZ-treated mice = assay: Acute PTZ (pentylenetetrazol-induced seizure) assay in mice; format: in vivo, mouse; details: latency to tonic seizures
Experimental: The anticonvulsant effect of test compounds were assessed in the pentylenetetazol-induced seizure assay in mice similar to methods described in Giardina & Gasior (2009) Curr Protoc Pharmacol., Chapter 5. Male CD-1 mice were housed in groups of five under controlled conditions (temperature of 22±2° C. and 12:12 light-dark cycle, lights on at 8:00 am) and water and food were available ad libitum. The mice were housed for 1 week prior to behavioral testing, at which time they weighed 25-35 g. Pentylenetetrazol (PTZ, Sigma) was dissolved in sterile 0.9% saline at a concentration of 12 mg/mL concentration for subcutaneous administration. Test compounds were formulated and administered via oral gavage or intraperitoneal injection at a predetermined time-point (typically 30 or 60 minutes) prior to PTZ injection. All solutions were made fresh and were given in a volume of 10 ml/kg body weight.
Mice were acclimated to the test room for at least 30 min before compound administration. Mice were randomized into at least four test groups (vehicle and at least three doses of the test compound) with 10 mice per group. […] Following the drug pretreatment time the mice were injected s.c. with PTZ (120 mg/kg). Immediately following the PTZ injection, mice were individually placed into observation chambers (25×15×15 cm) and a three-channel timer was started. Each mouse was continuously observed for 30 min and the following behaviors were recorded by observers blinded to the treatments: 1) latency to clonic convulsions that persist for 3 sec and followed by an absence of righting reflex 2) latency to tonic convulsions, characterized by the rigid extension of all four limbs that exceeded a 90 degree angle with the body 3) latency to death 4) number of clonic and tonic convulsions. Data are presented as mean±S.E.M and one-way analysis of variance with Dunnett's or Bonferroni's post-hoc test was used to detect significant differences in latency and number between the vehicle and dose group. p values<0.05 were regarded as statistically significant.

male Sprague Dawley rats = assay: Loss of righting reflex in rats; format: in vivo; details: Rat IV, 5 mpk
Experimental: Loss of Righting Reflex in Rats
The plasma pharmacokinetics and a qualitative assessment of sedation were obtained in male
Sprague Dawley rats according to the following procedure. Rats were dosed by intravenous bolus dose (60 seconds) via the foot dorsal vein at doses ranging from 5 to 15 mg/kg in an appropriate vehicle. In order to assess sedation, rats were gently restrained by hand to a lateral position for dose administration. […] If the animal was unable to return to an upright position, the time was recorded as the onset of loss of righting reflex (LRR). […] Sluggish or incomplete righting twice consecutively within a 30 second interval qualifies as a loss of righting reflex. After onset of LRR, animals were assessed every 5 minutes in the same manner. Recovery of righting reflex is defined as the ability of a rat to right itself completely within 20 seconds of being placed in dorsal recumbency. The duration of LRR is defined as the time interval between LRR and the return of righting reflex.

SMILES	Anticonvulsive Effect Dose (minimal effective anticonvulsant dose) (PTZ-treated mice; IP)	Duration of Rat LRR (male Sprague Dawley rats)	Anticonvulsive Effect Dose (minimal effective anticonvulsant dose) (PTZ-treated mice; PO)
C[C@@]1(O)CC[C@H]2[C@H](CC[C@@H]3[C@@H]2CC[C@]2(C)[C@@H](C(=O)Cn4cccn4)CC[C@@H]32)C1 [SA-13]	B (IP) (≥3 mpk)		
Cc1cnn(CC(=O)[C@H]2CC[C@H]3[C@@H]4CC[C@@H]5C[C@](C)(O)CC[C@@H]5[C@H]4CC[C@]23C)c1 [SA-6]		A (<15 min)	
C[C@@]1(O)CC[C@H]2[C@H](CC[C@@H]3[C@@H]2CC[C@]2(C)[C@@H](C(=O)Cn4cc(C#N)cn4)CC[C@@H]32)C1 [SA-4]		C (>60 min)	A (PO) (<3 mpk)
